# Where a SMILES comes first, the peptide text is derived from it. Bridges are numbered along the chain shown (N, C = ends). [ ]: non-standard residue; d: D form. NMeY = CN[C@@H](Cc1ccc(O)cc1)C(=O)O; R8 = C=CCCCCCC[C@@](C)(N)C(=O)O; Cit = NC(=O)NCCC[C@H](N)C(=O)O; S5 = C=CCCC[C@](C)(N)C(=O)O; Nle = CCCC[C@H](N)C(=O)O; Aib = CC(C)(N)C(=O)O
# Molecular target: T1, human GHRH receptor (hGHRHR) (Homo sapiens, UniProt Q02643)
# T1 construct: expressed in transfected cells; host or cells: Human 293 cells
# T1 sequence (Q02643 23-423): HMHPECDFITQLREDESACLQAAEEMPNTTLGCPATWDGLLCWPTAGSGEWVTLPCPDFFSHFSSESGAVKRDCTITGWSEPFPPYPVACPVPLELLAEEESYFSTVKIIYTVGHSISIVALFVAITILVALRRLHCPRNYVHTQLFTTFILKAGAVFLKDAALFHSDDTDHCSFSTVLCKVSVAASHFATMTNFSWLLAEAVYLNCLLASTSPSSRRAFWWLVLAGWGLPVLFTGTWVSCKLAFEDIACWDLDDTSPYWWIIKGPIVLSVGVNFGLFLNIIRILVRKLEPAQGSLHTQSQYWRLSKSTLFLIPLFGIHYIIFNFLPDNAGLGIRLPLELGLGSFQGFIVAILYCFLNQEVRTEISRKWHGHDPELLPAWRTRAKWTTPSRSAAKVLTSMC
# Test: GHRHR agonism measured by cAMP (HTRF) in human 293 cells expressing hGHRHR;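 further: receptor expressed transiently or stably, cells stimulated in serum-free medium, EC50 from a non-linear dose-response fit, maximal response defined by reference GHRH stimulation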
# Format: cell-based
# Settings: 30 min at RT
# Procedure: GHRH (1-29) and cross-linked peptidomimetic macrocycles were tested for agonism at the human GHRH receptor (hGHRHR) at various concentrations. Human 293 cells transiently or stably expressing hGHRHR were detached from cell culture flasks with versene (Life Technologies™), suspended in serum-free medium (50 k cells/assay point), and stimulated for 30 min at RT with GHRH (1-29) (Bachem™) or cross-linked peptidomimetic macrocycles. cAMP was quantified using an HTRF®-based assay (CisBio) and used according to the manufacturer's instructions. An EC50 for each agonist was calculated from a non-linear fit of response vs dose (GraphPad™ Prism). The maximum response was determined by stimulating with 10 μM GHRH (1-29). (+=>50 nm; ++=>25-50 nm; +++=>10-25 nm; ++++=>1-10 nm; +++++=≤1 nm).
row,SMILES,EC50
1,CCCC[C@H](NC(=O)[C@@H](NC(=O)[C@H](CC(=O)O)NC(=O)[C@H](CCC(N)=O)NC(=O)[C@H](CC(C)C)NC(=O)[C@H](C)NC(=O)[C@H](CCCCN)NC(=O)[C@H](CCCNC(=N)N)NC(=O)[C@H](C)NC(=O)[C@H](CO)NC(=O)[C@H](CC(C)C)NC(=O)[C@H](CCC(N)=O)NC(=O)[C@H](C)NC(=O)[C@H](CC(C)C)NC(=O)[C@@H](NC(=O)[C@H](CCCCN)NC(=O)[C@H](CCCNC(=N)N)NC(=O)[C@H](Cc1ccc(O)cc1)NC(=O)[C@H](CO)NC(=O)[C@H](C)NC(=O)[C@@H](NC(=O)[C@H](Cc1ccccc1)NC(=O)[C@@H](NC(=O)[C@H](C)NC(=O)[C@H](CC(=O)O)NC(=O)[C@@H](C)NC(=O)[C@@H](N)Cc1ccc(O)cc1)[C@@H](C)CC)[C@@H](C)O)C(C)C)[C@@H](C)CC)C(=O)N[C@@H](CO)C(=O)N[C@@H](CCCNC(=N)N)C(N)=O [SP-46] (H-Y[dA]DAIFTASYRKVLAQLSARKALQDI[Nle]SR-NH2),≤ 1 nM
2,CCCC[C@H](NC(=O)[C@@H](NC(=O)[C@H](CC(=O)O)NC(=O)[C@H](CCC(N)=O)NC(=O)[C@H](CC(C)C)NC(=O)[C@H](C)NC(=O)[C@H](CCCCN)NC(=O)[C@H](CCCNC(=N)N)NC(=O)[C@H](C)NC(=O)[C@H](CO)NC(=O)[C@H](CC(C)C)NC(=O)[C@H](CCC(N)=O)NC(=O)[C@H](C)NC(=O)[C@H](CC(C)C)NC(=O)[C@@H](NC(=O)[C@H](CCCCN)NC(=O)[C@H](CCCNC(N)=O)NC(=O)[C@H](Cc1ccc(O)cc1)NC(=O)[C@H](CO)NC(=O)[C@H](C)NC(=O)[C@@H](NC(=O)[C@H](Cc1ccccc1)NC(=O)[C@@H](NC(=O)[C@H](C)NC(=O)[C@H](CC(=O)O)NC(=O)[C@H](C)NC(=O)[C@H](Cc1ccc(O)cc1)NC)[C@@H](C)CC)[C@@H](C)O)C(C)C)[C@@H](C)CC)C(=O)N[C@@H](CO)C(=O)N[C@@H](CCCNC(=N)N)C(N)=O [SP-47] (H-[NMeY]ADAIFTASY[Cit]KVLAQLSARKALQDI[Nle]SR-NH2),≤ 1 nM
3,CCCC[C@H](NC(=O)[C@@H](NC(=O)[C@H](CC(=O)O)NC(=O)[C@H](CCC(N)=O)NC(=O)[C@H](CC(C)C)NC(=O)[C@H](C)NC(=O)[C@H](CCCCN)NC(=O)[C@H](CCCNC(N)=O)NC(=O)[C@H](C)NC(=O)[C@H](CO)NC(=O)[C@H](CC(C)C)NC(=O)[C@H](CCC(N)=O)NC(=O)[C@H](C)NC(=O)[C@H](CC(C)C)NC(=O)[C@@H](NC(=O)[C@H](CCCCN)NC(=O)[C@H](CCCNC(=N)N)NC(=O)[C@H](Cc1ccc(O)cc1)NC(=O)[C@H](CO)NC(=O)[C@H](C)NC(=O)[C@@H](NC(=O)[C@H](Cc1ccccc1)NC(=O)[C@@H](NC(=O)[C@H](C)NC(=O)[C@H](CC(=O)O)NC(=O)[C@H](C)NC(=O)[C@H](Cc1ccc(O)cc1)NC)[C@@H](C)CC)[C@@H](C)O)C(C)C)[C@@H](C)CC)C(=O)N[C@@H](CO)C(=O)N[C@@H](CCCNC(=N)N)C(N)=O [SP-48] (H-[NMeY]ADAIFTASYRKVLAQLSA[Cit]KALQDI[Nle]SR-NH2),1 to 10 nM
4,CCCC[C@H](NC(=O)[C@@H](NC(=O)[C@H](CC(=O)O)NC(=O)[C@H](CCC(N)=O)NC(=O)[C@H](CC(C)C)NC(=O)[C@H](C)NC(=O)[C@H](CCCCN)NC(=O)[C@H](CCCNC(=N)N)NC(=O)[C@H](C)NC(=O)[C@H](CO)NC(=O)[C@H](CC(C)C)NC(=O)[C@H](CCC(N)=O)NC(=O)[C@H](C)NC(=O)[C@H](CC(C)C)NC(=O)[C@@H](NC(=O)[C@H](CCCCN)NC(=O)[C@H](CCCNC(=N)N)NC(=O)[C@H](Cc1ccc(O)cc1)NC(=O)[C@H](CO)NC(=O)[C@H](C)NC(=O)[C@@H](NC(=O)[C@H](Cc1ccccc1)NC(=O)[C@@H](NC(=O)[C@H](C)NC(=O)[C@H](CC(=O)O)NC(=O)[C@H](C)NC(=O)[C@H](Cc1ccc(O)cc1)NC)[C@@H](C)CC)[C@@H](C)O)C(C)C)[C@@H](C)CC)C(=O)N[C@@H](CO)C(=O)N[C@@H](CCCNC(N)=O)C(N)=O [SP-49] (H-[NMeY]ADAIFTASYRKVLAQLSARKALQDI[Nle]S[Cit]-NH2),≤ 1 nM
5,CCCC[C@H](NC(=O)[C@@H](NC(=O)[C@H](CC(=O)O)NC(=O)[C@H](CCC(N)=O)NC(=O)[C@H](CC(C)C)NC(=O)[C@H](C)NC(=O)[C@H](CCCCN)NC(=O)[C@H](CCCNC(=N)N)NC(=O)[C@]1(C)CCCC=CCCCCCC[C@@](C)(NC(=O)[C@H](CCCNC(=N)N)NC(=O)[C@H](Cc2ccc(O)cc2)NC(=O)[C@H](CO)NC(=O)[C@H](C)NC(=O)[C@@H](NC(=O)[C@H](Cc2ccccc2)NC(=O)[C@@H](NC(=O)[C@H](C)NC(=O)[C@H](CC(=O)O)NC(=O)[C@@H](C)NC(=O)[C@H](Cc2ccc(O)cc2)NC(=O)[C@@H]2CCCN2C(=O)[C@@H]2CCCN2)[C@@H](C)CC)[C@@H](C)O)C(=O)N[C@@H](C(C)C)C(=O)N[C@@H](CC(C)C)C(=O)N[C@@H](C)C(=O)N[C@@H](CCC(N)=O)C(=O)N[C@@H](CC(C)C)C(=O)N[C@@H](CO)C(=O)N1)[C@@H](C)CC)C(=O)N[C@@H](CO)C(=O)N[C@@H](CCCNC(=N)N)C(N)=O [SP-56] (H-PPY[dA]DAIFTASYR[R8]VLAQLS[S5]RKALQDI[Nle]SR-NH2; staple 14-21),> 50 nM
6,CCCC[C@H](NC(=O)[C@@H](NC(=O)[C@H](CC(=O)O)NC(=O)[C@H](CCC(N)=O)NC(=O)[C@H](CC(C)C)NC(=O)[C@H](C)NC(=O)[C@H](CCCCN)NC(=O)[C@H](CCCNC(=N)N)NC(=O)[C@]1(C)CCCC=CCCCCCC[C@@](C)(NC(=O)[C@H](CCCNC(=N)N)NC(=O)[C@H](Cc2ccc(O)cc2)NC(=O)[C@H](CO)NC(=O)[C@H](C)NC(=O)[C@@H](NC(=O)[C@H](Cc2ccccc2)NC(=O)[C@@H](NC(=O)[C@H](C)NC(=O)[C@H](CC(=O)O)NC(=O)[C@H](C)NC(=O)[C@H](Cc2ccc(O)cc2)NC)[C@@H](C)CC)[C@@H](C)O)C(=O)N[C@@H](C(C)C)C(=O)N[C@@H](CC(C)C)C(=O)N[C@@H](C)C(=O)N[C@@H](CCC(N)=O)C(=O)N[C@@H](CC(C)C)C(=O)N[C@@H](CO)C(=O)N1)[C@@H](C)CC)C(=O)N[C@@H](CO)C(=O)N[C@@H](CCCNC(=N)N)C(N)=O [SP-57],10 to 25 nM

# The next lines start with the values.
row,EC50,SMILES
1,1 to 10 nM,CCCC[C@H](NC(=O)[C@@H](NC(=O)[C@H](CC(=O)O)NC(=O)[C@H](CCC(N)=O)NC(=O)[C@H](CC(C)C)NC(=O)C(C)(C)NC(=O)[C@H](CCCCN)NC(=O)[C@H](CCCNC(=N)N)NC(=O)[C@H](C)NC(=O)[C@H](CO)NC(=O)[C@H](CC(C)C)NC(=O)[C@H](CCC(N)=O)NC(=O)[C@H](C)NC(=O)[C@H](CC(C)C)NC(=O)[C@@H](NC(=O)[C@H](CCCCN)NC(=O)[C@H](CCCNC(=N)N)NC(=O)[C@H](Cc1ccc(O)cc1)NC(=O)[C@H](CO)NC(=O)C(C)(C)NC(=O)[C@@H](NC(=O)[C@H](Cc1ccccc1)NC(=O)[C@@H](NC(=O)[C@H](C)NC(=O)[C@H](CC(=O)O)NC(=O)[C@H](C)NC(=O)[C@H](Cc1ccc(O)cc1)NC)[C@@H](C)CC)[C@@H](C)O)C(C)C)[C@@H](C)CC)C(=O)N[C@@H](CO)C(=O)N[C@@H](CCCNC(=N)N)C(N)=O [SP-52] (H-[NMeY]ADAIFT[Aib]SYRKVLAQLSARK[Aib]LQDI[Nle]SR-NH2)
2,1 to 10 nM,CCCC[C@H](NC(=O)[C@@H](NC(=O)[C@H](CC(=O)O)NC(=O)C(C)(C)NC(=O)[C@H](CC(C)C)NC(=O)[C@H](C)NC(=O)[C@H](CCCCN)NC(=O)[C@H](CCCNC(=N)N)NC(=O)[C@H](C)NC(=O)[C@H](CO)NC(=O)[C@H](CC(C)C)NC(=O)[C@H](CCC(N)=O)NC(=O)[C@H](C)NC(=O)[C@H](CC(C)C)NC(=O)[C@@H](NC(=O)[C@H](CCCCN)NC(=O)[C@H](CCCNC(=N)N)NC(=O)[C@H](Cc1ccc(O)cc1)NC(=O)[C@H](CO)NC(=O)C(C)(C)NC(=O)[C@@H](NC(=O)[C@H](Cc1ccccc1)NC(=O)[C@@H](NC(=O)[C@H](C)NC(=O)[C@H](CC(=O)O)NC(=O)[C@H](C)NC(=O)[C@H](Cc1ccc(O)cc1)NC)[C@@H](C)CC)[C@@H](C)O)C(C)C)[C@@H](C)CC)C(=O)N[C@@H](CO)C(=O)N[C@@H](CCCNC(=N)N)C(N)=O [SP-53] (H-[NMeY]ADAIFT[Aib]SYRKVLAQLSARKAL[Aib]DI[Nle]SR-NH2)
3,1 to 10 nM,CCCC[C@H](NC(=O)[C@@H](NC(=O)[C@H](CC(=O)O)NC(=O)[C@H](C)NC(=O)[C@H](CC(C)C)NC(=O)[C@H](C)NC(=O)[C@H](CCCCN)NC(=O)[C@H](CCCNC(=N)N)NC(=O)[C@H](C)NC(=O)C(C)(C)NC(=O)[C@H](CC(C)C)NC(=O)[C@H](CCC(N)=O)NC(=O)[C@H](C)NC(=O)[C@H](CC(C)C)NC(=O)[C@@H](NC(=O)[C@H](CCCCN)NC(=O)[C@H](CCCNC(=N)N)NC(=O)[C@H](Cc1ccc(O)cc1)NC(=O)[C@H](CO)NC(=O)[C@H](C)NC(=O)[C@@H](NC(=O)[C@H](Cc1ccccc1)NC(=O)[C@@H](NC(=O)[C@H](C)NC(=O)[C@H](CC(=O)O)NC(=O)[C@H](C)NC(=O)[C@H](Cc1ccc(O)cc1)NC)[C@@H](C)CC)[C@@H](C)O)C(C)C)[C@@H](C)CC)C(=O)N[C@@H](CO)C(=O)N[C@@H](CCCNC(=N)N)C(N)=O [SP-54] (H-[NMeY]ADAIFTASYRKVLAQL[Aib]ARKALADI[Nle]SR-NH2)
4,1 to 10 nM,CCCC[C@H](NC(=O)[C@@H](NC(=O)[C@H](CC(=O)O)NC(=O)C(C)(C)NC(=O)[C@H](CC(C)C)NC(=O)[C@H](C)NC(=O)[C@H](CCCCN)NC(=O)[C@H](CCCNC(=N)N)NC(=O)[C@H](C)NC(=O)C(C)(C)NC(=O)[C@H](CC(C)C)NC(=O)[C@H](CCC(N)=O)NC(=O)[C@H](C)NC(=O)[C@H](CC(C)C)NC(=O)[C@@H](NC(=O)[C@H](CCCCN)NC(=O)[C@H](CCCNC(=N)N)NC(=O)[C@H](Cc1ccc(O)cc1)NC(=O)[C@H](CO)NC(=O)C(C)(C)NC(=O)[C@@H](NC(=O)[C@H](Cc1ccccc1)NC(=O)[C@@H](NC(=O)[C@H](C)NC(=O)[C@H](CC(=O)O)NC(=O)[C@H](C)NC(=O)[C@H](Cc1ccc(O)cc1)NC)[C@@H](C)CC)[C@@H](C)O)C(C)C)[C@@H](C)CC)C(=O)N[C@@H](CO)C(=O)N[C@@H](CCCNC(=N)N)C(N)=O [SP-55] (H-[NMeY]ADAIFT[Aib]SYRKVLAQL[Aib]ARKAL[Aib]DI[Nle]SR-NH2)

# — patent publication US20180371044A1, “PEPTIDOMIMETIC MACROCYCLES” (Aileron Therapeutics, Inc., priority 2015, published 2018)
